Patent US11479539B2, “Small molecule modulators of the BTB domain of Keap1” (MedImmune Limited, priority 2017, dated 2022)

Target: Keap1 (Homo sapiens (Human), UniProt Q14145)
Assay: HEK293 ARE luciferase assay
Type: cell-based
Settings: HEK-293 ARE firefly luciferase transiently transfected cells; 18 h incubation; mean of 1 to 20 individual measurements
Description: The purpose of this assay is to identify small molecule inhibitors of Keap1, preventing Keap1 binding to Nrf2, and thus activating the Nrf2 signalling pathway in HEK-293 ARE firefly luciferase transiently transfected cells. HEK-293 cells express wild-type Keap1 protein and therefore have low constitutive levels of Nrf2 protein and Nrf2-dependent transcription. […] When Keap1 is inhibited, Nrf2 signalling is activated, and there is an increase in luciferase expression and light emission.
Cryopreserved HEK ARE luciferase cells were rapidly thawed in a 37° C. water bath and resuspended in assay culture medium (DMEM, 10% FCS, 2 mM L-glutamine). The cell suspension was pelleted by centrifugation ([…]; 300 g) using a Heraeus benchtop centrifuge. Supernatant was removed and the pellet was gently resuspended in 5 mL culture medium per vial. Cell viability and cell number was measured using an Invitrogen Countess automated cell counter (typical viability 80%), and cells were diluted to a density of 5.0×10^5 cells/mL.
Cells were then plated out into white 384-well plates (Greiner 781080) using a Multidrop Combi, 20 μL/well, to give 10,000 cells/well. As appropriate, test compounds had been added to wells prior to dispensing cells using an Echo 555 acoustic dispenser (Labcyte). Plates were left at room temperature for ˜10 min to promote even cell settling across the plate before incubation for 18 h at 37° C., 95% humidity and 5% CO2.
After 18 h incubation, plates were removed from the incubator and allowed to cool to room temperature for 30 min, before 10 μL per well SteadyGlo reagent detection reagent was added (as per manufacturer's instructions, 10 min before required 10 mL room temperature buffer was added to one vial of lyophilised substrate and inverted several times to fully dissolve). Plates were then incubated in the dark for 30 min before reading on an Envision plate reader.
Compounds were acoustically dispensed using a Labcyte Echo, using a 10 pt dose curve with a top concentration of 100 μM. Assay wells were backfilled with DMSO to a total of 60 nL to maintain 0.3% (v/v) DMSO through the assay.
The Stimulator signal was defined using 30 μM tert-butyl hydroquinone (tBHQ) and the Neutral signal by DMSO vehicle control. All calculations were performed using GeneData.
In IBIS Column Calculations, Assay Type was set to ‘Stimulator’, and the Activity Threshold was set to 50.
The mean values were calculated from anywhere from 1 to 20 individual measurements.

Keap1, sequence (Q14145 whole entry): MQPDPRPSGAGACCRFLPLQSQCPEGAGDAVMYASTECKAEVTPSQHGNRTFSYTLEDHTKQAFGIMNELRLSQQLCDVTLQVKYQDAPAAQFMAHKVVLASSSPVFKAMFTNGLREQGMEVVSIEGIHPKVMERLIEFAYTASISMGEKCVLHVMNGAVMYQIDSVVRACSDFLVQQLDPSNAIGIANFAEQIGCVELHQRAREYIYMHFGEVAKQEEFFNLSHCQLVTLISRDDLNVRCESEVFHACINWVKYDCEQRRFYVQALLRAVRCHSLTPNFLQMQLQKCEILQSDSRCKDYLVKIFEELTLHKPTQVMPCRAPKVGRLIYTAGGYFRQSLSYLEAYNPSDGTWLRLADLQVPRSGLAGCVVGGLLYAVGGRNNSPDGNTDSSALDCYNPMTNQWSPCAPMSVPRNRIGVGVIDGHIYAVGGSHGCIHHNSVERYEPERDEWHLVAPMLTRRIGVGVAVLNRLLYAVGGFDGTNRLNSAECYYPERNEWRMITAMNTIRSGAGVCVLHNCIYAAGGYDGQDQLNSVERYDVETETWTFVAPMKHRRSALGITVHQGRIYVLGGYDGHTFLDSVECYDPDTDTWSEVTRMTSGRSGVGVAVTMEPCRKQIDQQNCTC

SMILES	EC50 [nM]
COc1ccccc1-c1cccc(C2(OC)C=C(C#N)C(=O)C(C)(C)C2)n1 (centres unmarked) [Compound 120, 3-methoxy-3-[6-(2-methoxyphenyl)pyridin-2-yl]-5,5-dimethyl-6-oxocyclohex-1-ene-1-carbonitrile]	245
COC1(c2nccs2)C=C(C#N)C(=O)C(C)(C)C1 (centres unmarked) [Compound 144, 3-methoxy-5,5-dimethyl-6-oxo-3-(1,3-thiazol-2-yl)cyclohex-1-ene-1-carbonitrile]	389
COC1(c2ncc(F)cc2C)C=C(C#N)C(=O)C(C)(C)C1 (centres unmarked) [Compound 137, 3-(5-fluoro-3-methylpyridin-2-yl)-3-methoxy-5,5-dimethyl-6-oxocyclohex-1-ene-1-carbonitrile]	47
COC1(c2cccc(-c3cnn(C)c3)n2)C=C(C#N)C(=O)C(C)(C)C1 (centres unmarked) [Compound 111, 3-methoxy-5,5-dimethyl-3-[6-(1-methyl-1H-pyrazol-4-yl)pyridin-2-yl]-6-oxocyclohex-1-ene-1-carbonitrile]	65
COC1(c2ncc(F)cc2-c2cncc(C(C)(C)C#N)c2)C=C(C#N)C(=O)C(C)(C)C1 (single isomer, unassigned) [Compound 222, 3-[5′-(2-cyanopropan-2-yl)-5-fluoro[3,3′-bipyridin]-2-yl]-3-methoxy-5,5-dimethyl-6-oxocyclohex-1-ene-1-carbonitrile]	6
COC1(c2cccc(-c3cncnc3)n2)C=C(C#N)C(=O)C2(CC2)C1 (single isomer, unassigned) [Compound 51, 7-methoxy-4-oxo-7-(6-(pyrimidin-5-yl)pyridin-2-yl)spiro[2.5]oct-5-ene-5-carbonitrile]	48
COC1(c2nc(C)c(-c3ccccn3)s2)C=C(C#N)C(=O)C(C)(C)C1 (single isomer, unassigned) [Compound 99, 3-methoxy-5,5-dimethyl-3-[4-methyl-5-(pyridin-2-yl)-1,3-thiazol-2-yl]-6-oxocyclohex-1-ene-1-carbonitrile]	66
COC1(c2ncc(F)cc2-c2cnn(C3CCCC3)c2)C=C(C#N)C(=O)C(C)(C)C1 (centres unmarked) [Compound 180, 3-[3-(1-cyclopentyl-1H-pyrazol-4-yl)-5-fluoropyridin-2-yl]-3-methoxy-5,5-dimethyl-6-oxocyclohex-1-ene-1-carbonitrile]	115
COC1(c2ncccc2C(F)F)C=C(C#N)C(=O)C(C)(C)C1 (centres unmarked) [Compound 124, 3-[3-(difluoromethyl)pyridin-2-yl]-3-methoxy-5,5-dimethyl-6-oxocyclohex-1-ene-1-carbonitrile]	27
COC1(c2nccs2)C=C(C#N)C(=O)C(C)(C)C1 (single isomer, unassigned) [Compound 39, 3-methoxy-5,5-dimethyl-6-oxo-3-(thiazol-2-yl)cyclohex-1-enecarbonitrile]	125
COC1(c2ncc(F)cc2F)C=C(C#N)C(=O)C2(CC2)C1 (centres unmarked) [Compound 156, 7-(3,5-difluoropyridin-2-yl)-7-methoxy-4-oxospiro[2.5]oct-5-ene-5-carbonitrile]	249
COC1(c2ncccc2C(F)(F)F)C=C(C#N)C(=O)C2(CC2)C1 (centres unmarked) [Compound 133, 7-methoxy-4-oxo-7-[3-(trifluoromethyl)pyridin-2-yl]spiro[2.5]oct-5-ene-5-carbonitrile]	76
COC1(c2ncc(F)cc2-c2cncc(S(C)(=O)=O)c2)C=C(C#N)C(=O)C(C)(C)C1 (centres unmarked) [Compound 96, 3-(5-fluoro-5′-(methylsulfonyl)-[3,3′-bipyridin]-2-yl)-3-methoxy-5,5-dimethyl-6-oxocyclohex-1-ene-1-carbonitrile]	7
COC1(c2cccc(-c3ccnn3C)n2)C=C(C#N)C(=O)C(C)(C)C1 (centres unmarked) [Compound 106, 3-methoxy-5,5-dimethyl-3-(6-(1-methyl-1H-pyrazol-5-yl)pyridin-2-yl)-6-oxocyclohex-1-ene-1-carbonitrile]	120
COC1(c2scnc2C)C=C(C#N)C(=O)C(C)(C)C1 (single isomer, unassigned) [Compound 43, 3-methoxy-5,5-dimethyl-3-(4-methylthiazol-5-yl)-6-oxocyclohex-1-enecarbonitrile]	129
COC1(c2ncc(F)cc2C#CC(C)C)C=C(C#N)C(=O)C(C)(C)C1 (single isomer, unassigned) [Compound 100, 3-[5-fluoro-3-(3-methylbut-1-yn-1-yl)pyridin-2-yl]-3-methoxy-5,5-dimethyl-6-oxocyclohex-1-ene-1-carbonitrile]	77
CO[C@]1(c2ncsc2C)C=C(C#N)C(=O)C(C)(C)C1 [Compound 38, (S)-3-methoxy-5,5-dimethyl-3-(5-methylthiazol-4-yl)-6-oxocyclohex-1-enecarbonitrile]	132
COC1(c2cccc(-c3nccs3)n2)C=C(C#N)C(=O)C(C)(C)C1 (centres unmarked) [Compound 125, 3-methoxy-5,5-dimethyl-6-oxo-3-[6-(1,3-thiazol-2-yl)pyridin-2-yl]cyclohex-1-ene-1-carbonitrile]	236
COC1(c2cccc(-c3cncnc3)n2)C=C(C#N)C(=O)C(C)(C)C1 (single isomer, unassigned) [Compound 104, 3-methoxy-5,5-dimethyl-6-oxo-3-(6-(pyrimidin-5-yl)pyridin-2-yl)cyclohex-1-ene-1-carbonitrile]	45
COC1(c2cccc(-c3cnn(C)c3)n2)C=C(C#N)C(=O)C2(CC2)C1 (single isomer, unassigned) [Compound 49, 7-methoxy-7-(6-(1-methyl-1H-pyrazol-4-yl)pyridin-2-yl)-4-oxospiro[2.5]oct-5-ene-5-carbonitrile]	138
COC1(c2ncc(F)cc2-c2ccc3ccnn3c2)C=C(C#N)C(=O)C(C)(C)C1 (single isomer, unassigned) [Compound 203, 3-[5-fluoro-3-(pyrazolo[1,5-a]pyridin-6-yl)pyridin-2-yl]-3-methoxy-5,5-dimethyl-6-oxocyclohex-1-ene-1-carbonitrile]	6
COC1(c2cccc(-c3ccnn3C)n2)C=C(C#N)C(=O)C2(CC2)C1 (single isomer, unassigned) [Compound 53, 7-methoxy-7-(6-(1-methyl-1H-pyrazol-5-yl)pyridin-2-yl)-4-oxospiro[2.5]oct-5-ene-5-carbonitrile]	133
COC1(c2ncc(Cl)cc2C(F)F)C=C(C#N)C(=O)C(C)(C)C1 (single isomer, unassigned) [Compound 206, 3-[5-chloro-3-(difluoromethyl)pyridin-2-yl]-3-methoxy-5,5-dimethyl-6-oxocyclohex-1-ene-1-carbonitrile]	159
COC1(c2nc(C)cs2)C=C(C#N)C(=O)C(C)(C)C1 (centres unmarked) [Compound 142, 3-methoxy-5,5-dimethyl-3-(4-methyl-1,3-thiazol-2-yl)-6-oxocyclohex-1-ene-1-carbonitrile]	60
CCOC1(c2ncccc2C(F)(F)F)C=C(C#N)C(=O)C(C)(C)C1 (single isomer, unassigned) [Compound 35, 3-ethoxy-5,5-dimethyl-6-oxo-3-(3-(trifluoromethyl)py-ridin-2-yl)cyclohex-1-enecarbonitrile]	39
COC1(c2ncc(F)cc2-c2ccc3nc(C)cn3c2)C=C(C#N)C(=O)C(C)(C)C1 (single isomer, unassigned) [Compound 201, 3-[5-fluoro-3-(2-methylimidazo[1,2-a]pyridin-6-yl)pyridin-2-yl]-3-methoxy-5,5-dimethyl-6-oxocyclohex-1-ene-1-carbonitrile]	182
